How the values were obtained:
[1] = test system: L4-6 DRG cultures (sensory neurons); assay: Extracellular flux analysis (Seahorse XFp): glutamine oxidation-dependent oxygen consumption rate of dissociated L4-6 DRG cultures from IT-treated mice; type: cell-based, mouse; details: glutamine 2 mM; for increase in oxygen consumption rate (OCR) in response to glutamine addition: DRG cultures from mice given 1 μg IT one day earlier, baseline OCR subtracted; for time over which the glutamine-induced OCR increase lasts: DRG cultures from mice given 1 μg IT
Procedure: (§1) In this experiment, mice were injected with 1 μg of teRNA or teRNAmm intrathecally (IT). The next day L4-6 DRGs were dissected and acutely dissociated for extracellular flux analysis. One day post teRNA and teRNA mm injection L4-6 DRGs were dissected and proteins were extracted for western blot analysis. In an independent experiment, mice received plantar incision and were allowed to recover. On day 10 baseline measurements were performed, which was followed by intraplantar injection of PGE2. Allodynia testing was preformed form on days 14, 15, 21 and 24. Intrathecal teRNA or teRNAmm (1 μg) were injected on day 14 following the allodynia testing.
In this experiment, L4-6 DRGs were dissected form naïve, teRNAmm and teRNA treated mice. Lumbar 4-6 DRGs were placed in Hank's Buffered Salt Solution (HBSS, Thermo Fisher, Cat #14170112) on ice. The ganglia were dissociated enzymatically with collagenase A (1 mg/ml, 25 min, Millipore Sigma, Cat #10103578001) and collagenase D (1 mg/ml, Millipore Sigma, Cat #11088858001) with papain (30 U/ml, Millipore Sigma, Cat #10108014001) for 20 min at 37° C. To eliminate debris and large diameter sensory neurons, 70 μm (Thermo Fisher, Cat #087712) cell strainers were used. The dissociated cells were resuspended in DMEM/F12 (Thermo Fisher, Cat #10565042) containing 1× pen-strep (Thermo Fisher, Cat #15070063) and 10% fetal bovine serum (Millipore Sigma, Cat #F2442). The cells were plated in Seahorse XFp Cell Culture Miniplate (Agilent, Cat #103025-100). These cultures were incubated overnight at 37° C. in a humidified 95% air/5% CO2 incubator. The metabolic changes were characterized by analyzing the glycolysis and oxidative phosphorylation rates of sensory neurons using extracellular flux analyzer, Seahorse XFp (Agilent). Dissociated L4-6 primary afferents were incubated in DMEM (Millipore Sigma, Cat #D5030) without glutamine, pyruvate or glucose, Baseline oxygen consumption rate (OCR) measurements were followed by the addition of glutamine (2 mM). The baseline OCR values were subtracted from each of the other values to determine glutamine oxidation-dependent OCR.

[2] = Hyperalgesic priming model (plantar incision then intraplantar PGE2), tactile thresholds by von Frey filaments; type: in vivo, mouse
From the text: The hyperalgesic priming model was utilized in the experiments because it is well-characterized and used to study the neuroplasticity underlying persistent pain sensitization and the transition of acute pain to chronic pain [13-17]. As shown at the top FIG. 2, the model is comprised of three phases. 1) The acute phase, also called the induction phase, causes transient tactile hypersensitivity in response to various pro-nociceptive compounds and resolves within a week. The hindpaw plantar incision model was used for the acute phase, which comprises incision of the skin, the underlying fascia, and the plantar flexor digitorum brevis muscle as the initial injury. This model was selected since it lacks injury to major peripheral nerves and typically resolves within a week. 2) The primed phase follows the acute phase. The animals are not hypersensitive and this phase can last for at least 3 weeks.
In this experiment, mice received plantar incision and their tactile thresholds were determined using von Frey filaments. Mice were placed in small cages with a mesh floor individually. Calibrated monofilaments of differing forces are applied perpendicularly to the hind paw. Withdraws, licking or flinching of the paw in response to the filament is considered a positive response. The results are provided in FIG. 2A where “Threshold (grams)” on the y-axis represents the amount of force required for the mice to withdraw the hindpaw before (baseline, BL) and after the incision. Reduced withdrawal threshold indicates increased pain.
In this experiment, the same mice used in the acute phase were allowed to recover and on Day 10 received intraplantar PGE2. The results are provided in FIG. 2B where “Threshold (grams)” on the y-axis represents the amount of force required for the mice to withdraw their hindpaw which is an indication of tactile hypersensitivity and pain. […] 1, 2, 3 and 4 days post-PGE2 injection, *** P<0.001. […] PGE2 injection caused profound allodynia in mice that had plantar incision.
as §1, with “testing. […]” for “testing.”

[3] = Bortezomib-induced CIPN (neuropathic pain) mouse model, tactile thresholds / allodynia; type: in vivo
Procedure: teRNA was administered to mice which have developed neuropathic pain due to bortezomib treatment. In this experiment, mice were treated with intraperitoneal 0.2 mg/kg of bortezomib (Millipore Sigma, Cat #5.04314.0001) for 5 consecutive days for a total dose of 1 mg/kg. The vehicle group received intraperitoneal saline for 5 consecutive days. The mice that receive bortezomib develop profound allodynia. The efficacy of teRNA for treating and preventing the development of bortezomib-induced neuropathic pain was explored.
Treatment with bortezomib (bort) from day 0-4 (black arrow) led to the development of severe neuropathic pain. Baseline thresholds were measured on day 0 and allodynia was tested on days 14, 15, 17 and 21.
In a second experiment, mice were treated with either saline or bortezomib on days 0-4 (intraperitoneal 0.2 mg/kg of bortezomib for 5 consecutive days for a total dose of 1 mg/kg). On day 7 mice that received bortezomib developed profound neuropathic pain.
To determine if teRNA can prevent the development of chemotherapy-induced neuropathic pain, mice were co-treated with IT teRNA (days 0, 2 and 4) and intraperitoneal (IP) bortezomib (days 0-4) (intraperitoneal 0.2 mg/kg of bortezomib for 5 consecutive days for a total dose of 1 mg/kg).

ASCT2 = assay: Western blot of ASCT2 protein in L4-6 DRGs after intrathecal injection; type: in vivo, mouse; details: IT 1 μg, DRGs dissected 24 hrs post injection; versus teRNAmm control
Procedure: Western blot (WB) analyses were performed to examine changes in metabolic genes that are known to regulate pyruvate and glutamine oxidation. In these experiments, lumbar 4-6 dorsal root ganglia (L4-6 DRGs) which innervate the hindpaw were dissected on Day 1, 9 and 14 post-plantar incisions (as described above). Protein was extracted from the L4-6 DRGs in lysis buffer (50 mM Tris HCl, 1% Triton X-100, 150 mM NaCl, and 1 mM EDTA at pH 7.4) containing protease and phosphatase inhibitor mixtures with an ultrasonicator on ice, and cleared of cellular debris by centrifugation at 14,000 relative centrifugal force for 15 min at 4° C. Fifteen micrograms of protein per well were loaded and separated by standard 7.5% or 10% SDS-PAGE. Proteins were transferred to Immobilon-P membranes (Millipore Sigma, Cat #IPVH00010) and then blocked with 5% dry milk for 3 h at room temperature. The blots were incubated with primary antibody overnight at 4° C. and detected the following day with donkey anti-rabbit or goat anti-mouse antibody conjugated to horseradish peroxidase (1:10,000, Jackson Immunoresearch, Cat #711-036-152, Cat #115-036-062). Signal was detected by enhanced chemiluminescence on films. For assessment of phospho-proteins, membranes were stripped and reprobed for total-protein of interest for normalization. Densitometric analyses were done using UN-SCAN-IT 7.1 software (Silk Scientific Corp.). […]

[4] = single IT 1 μg, 14 days post plantar incision (4 days post PGE2)
[5] = IT 1 μg on days 7, 9 and 11, bortezomib IP 0.2 mg/kg days 0-4
[6] = single IT 1 μg on day 14, bortezomib IP 0.2 mg/kg days 0-4

Row | Substance | increase in oxygen consumption rate (OCR) in response to glutamine addition [1] | time over which the glutamine-induced OCR increase lasts [1] | effect on tactile hypersensitivity / tactile thresholds, incision group [2, 4] | effect on existing bortezomib-induced neuropathic pain, repeated treatment [3, 5] | effect on bortezomib-induced neuropathic pain / tactile thresholds, single treatment [3, 6] | ASCT2 protein in L4-6 DRGs (ASCT2) | effect on tactile thresholds of the control group (no incision) ([2]; single IT 1 μg on day 14) | duration of alleviation of tactile hypersensitivity, incision group [2, 4] | duration of pain relief, repeated treatment [3, 5] | prevention of development of bortezomib-induced neuropathic pain, co-treatment ([3]; IT on days 0, 2 and 4 with IP bortezomib 0.2 mg/kg days 0-4) | time post the initiation of bortezomib treatment up to which existing neuropathic pain was alleviated ([3]; IT on days 7, 9 and 11, bortezomib days 0-4) | duration of alleviation of bortezomib-induced neuropathic pain, single treatment [3, 6]
1 | 5′-CAUACUACGCCGUAGC-3′ (2'-O-methyl modifications, further chemistry not given here) [teRNAmm, reference compound] | 10% | ≤ 30 min | did not display any change in their tactile thresholds | did not impact the bortezomib-induced neuropathic pain | did not impact the tactile thresholds | – | – | – | – | – | – | –
2 | 5′-CAUAGAUCCGGGAUGC-3′ (2'-O-methyl modifications, further chemistry not given here) [teRNA] | around 20% | at least 30 mins | alleviated tactile hypersensitivity | prolonged pain relief | reversed the bortezomib-induced neuropathic pain | robust increase | did not affect the tactile thresholds | at least 7 days | at least 2 weeks | prevented the development of bortezomib-induced neuropathic pain | at least 21 days | several days
